# Biological target: interaction between p53 and MDM2 proteins (recombinant GST-tagged MDM2) (Homo sapiens, UniProt Q00987)
# Test: ELISA of inhibition of the interaction between p53 and MDM2 (GST-tagged MDM2 binding to immobilized p53-like peptide)
# Conditions: recombinant GST-tagged MDM2 / biotinylated p53-like peptide
# Chain of interaction between p53 and MDM2 proteins (recombinant GST-tagged MDM2) (Q00987 whole entry): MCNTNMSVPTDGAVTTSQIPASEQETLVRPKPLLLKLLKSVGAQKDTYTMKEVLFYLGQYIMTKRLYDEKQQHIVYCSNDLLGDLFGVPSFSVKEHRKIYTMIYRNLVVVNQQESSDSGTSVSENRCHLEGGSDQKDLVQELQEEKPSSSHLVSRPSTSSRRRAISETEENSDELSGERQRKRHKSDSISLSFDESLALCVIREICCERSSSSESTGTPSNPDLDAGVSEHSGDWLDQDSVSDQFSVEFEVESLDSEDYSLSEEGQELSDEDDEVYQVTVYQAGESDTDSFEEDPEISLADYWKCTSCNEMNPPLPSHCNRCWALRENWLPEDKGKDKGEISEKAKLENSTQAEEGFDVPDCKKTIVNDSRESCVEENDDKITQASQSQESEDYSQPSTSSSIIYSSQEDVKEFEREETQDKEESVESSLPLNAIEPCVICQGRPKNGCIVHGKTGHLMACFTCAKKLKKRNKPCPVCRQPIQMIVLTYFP
compound,measurement,value
"COc1ccc(C2=N[C@@H](c3ccc(Cl)cc3)[C@@H](c3ccc(Cl)cc3)N2C(=O)N2CCC(N3CCCC3)CC2)c(OC(C)C)c1 [Example 5, [(4S,5R)-4,5-Bis-(4-chloro-phenyl)-2-(2-isopropoxy-4-methoxy-phenyl)-4,5-dihydro-imidazol-1-yl]-(4-pyrrolidin-1-yl-piperidin-1-yl)-methanone]",IC50,0.071 µM
